Measurements as given in US20170119806A1, “[…] LACTONE DERIVATIVES AND METHODS OF MAKING AND USING THEREOF” (OHIO STATE INNOVATION FOUNDATION, priority 2014, published 2017).
“Also recorded” adds a separate entry of the source. Like-named read-outs stand apart in the source and are kept apart here.

Assays:
[1] = tested on: human colon cancer HT-29 cells implanted in NCr nu/nu mice; details: ip once daily for four days; for activity in in vivo hollow fiber assay (HT-29 cell growth): 5.0-20.0 mg/kg; for toxicity in mice of the hollow fiber assay: up to 20.0 mg/kg
Protocol: Mice were treated with the indicated doses of 1 once a day by intraperitoneal injection from day 3 to day 6 after implantation of the HT-29 cells facilitated in hollow fibers.
In Vivo Hollow Fiber Assay. […] The human colon cancer cell line HT-29 was used to evaluate 1 using procedures previously described (Mi Q et al. J. Nat. Prod 2009, 72,573-580; Pearce C J et al. Methods Mol. Biol, 2012, 944, 267-277). Eight- to nine-week-old immunodeficient NCr nu/nu mice were purchased from The Jackson Laboratory (Bar Harbor, Me., USA) and housed in microisolation cages at room temperature and a relative humidity of 50-60% under 12:12 h light-dark cycle. […] The mixture was diluted with distilled water to 13% DMSO and 25% CREMOPHOR™. The mice were injected ip once daily for four days with 1 or the positive control (paclitaxel). Each mouse was weighed daily during the study. […] The fibers were retrieved and viable cell mass was evaluated by a modified MTT (3-(4,5-dimethylthiazol-2-yl)-2,5-diphenyltetrazolium bromide) assay. The percentage of the net growth for the cells in each treatment group was calculated by subtracting the day 0 absorbance from the day 7 absorbance and dividing this difference by the net growth in the vehicle control (minus value between the day 7 and the day). Data were compared by the Student's t test, and a p value less than 0.05 was considered statistically significant.
Immunodeficient NCr nu/nu mice implanted with human colon cancer HT-29 cells placed in hollow fibers were treated once daily by 1 at doses of 5.0, 10.0, 15.0, or 20.0 mg/kg, or the vehicle control, or paclitaxel (5 mg/kg), by intraperitoneal (ip) injection tier four days. The relative FIT-29 cell growth values from all mice were calculated.

[2] = tested on: HT-29 human colon cancer cells; assay: Cytotoxicity against HT-29 cells
Protocol: (§1) The cytotoxicity of the test compounds was screened against HT-29 cells by a previously reported procedure (Ren Y et al. J. Nat. Prod 2011, 74, 1117-1125). Paclitaxel and etoposide were used as positive controls.
(§2) All arylnaphthalene lignans isolated from P. poilanet in the present study and their semi-synthetic analogues were evaluated for their cytotoxicity against HT-29 human colon cancer cells, using paclitaxel as the positive control (Table 6) (Ren Y et al. J. Nat. Prod 2011, 74, 1117-1125).

[3] = tested on: CCD-112CoN normal human colon cells; assay: Cytotoxicity against CCD-112CoN cells; details: for IC50: read-out: IC50 values toward the CCD-112 CoN cells
Source text: Following a previous procedure (Still P C et al. J. Nat. Prod. 2013, 76, 243-249) and the method for screening cytotoxicity towards HT-29 cells mentioned above, the cytotoxicity of the samples was screened against CCD-112CoN normal human colon cells.

HT-29 cells = assay: Annexin V staining apoptosis assay; details: for HT-29 cell apoptosis at the late-stage / HT-29 cells undergoing early apoptosis: 72 h
Protocol: Lower left quadrant: the percentage of viable cells; lower right quadrant: the percentage of apoptotic cells; upper left quadrant: the percentage of necrotic cells; upper right quadrant: the percentage of the late-stage apoptotic or dead cells.
Annexin V Staining Method. […] The cells were washed with Annexin V binding buffer, centrifuged at 300×g for 10 min, and suspended (1×10^6) in 100 μL, of 1× Annexin V binding buffer. Then, 10 μL of Annexin fluorochrome was added to the suspension. After the suspension was mixed and incubated in a dark room at room temperature for 15 min, the cells were centrifuged, and the cell pellet was resuspended (1×10^6) in 100 μL of 1× Annexin V binding buffer. Next, 10 μL of Anti-Biotin-APC were added, and the cells incubated at 4-8° C. in a dark room for 10 min were centrifuged, The cell pellet was resuspended (1×10^6) in 500 μL of 1× Annexin V Binding Buffer. After 5 μg/mL of 7-AAD solution was added in the suspension, flow cytometry was conducted immediately.

topo IIα = topo IIα (Homo sapiens, UniProt P11388); assay: Topoisomerase II assay (DNA cleavage/relaxation); type: biochemical; details: 100 μM test compound
Source text: The formation of linear DNA was detected by separating the SDS-treated reaction products using ethidium bromide gel electrophoresis and quantified by accounting for the relationship between fluorescence and relative band intensity for open circular (OC), linear (LNR), supercoiled (SC), and relaxed (RLX) configurations of DNA.
Topoisomerase II Assay. […] The formation of linear DNA was detected by separating the SDS-treated reaction products using ethidium bromide gel electrophoresis by a modification of a previously described procedure (Hasinoff B B et al. Mol. Pharmacol. 2005, 67, 937-947). In this system, topo II-mediated catalytic conversion of supercoiled pBR322 DNA to the “relaxed” form of plasmic' DNA can also be observed. A 20 μL cleavage assay reaction mixture contained 250 ng topo IIα protein, 160 ng pBR322 plasmid DNA (NEB, Ipswich, Mass.), 1.0 mM ATP in assay buffer (10 mM Tris-HCl (pH 7.5), 50 mM KCl, 50 mM NaCl, 0.1 mM EDTA, 5 mM MgCl2, 2.5% glycerol), and 100 μM of test compounds or DMSO solvent, as indicated. Assay buffer (17 μL) and test compound/DMSO (1 μL) were mixed and allowed to sit at room temperature for 30 min after which 2 μL of topo IIα was added to initiate the reaction. Tubes were incubated at 37° C. for 15 min, and then quenched with 1% (v/v) SDS/10 mM disodium EDTA/200 mM NaCl. The mixture was treated subsequently with 0.77 mg/mL proteinase K (Sigma) at 55° C. for 60 min to digest the protein, and DNA bands were separated by electrophoresis (18 h at 2 V/cm) on an agarose gel (1.3% w/v) containing 0.7 μg/mL ethidium bromide in TAE buffer pH 8.0 (40 mM Tris base, 0.114% (v/v) glacial acetic acid, 2 mM EDTA). The DNA in the gel was imaged by its fluorescence on a Chemi-Doc XRS+ imager (Bio-Rad, Hercules, Calif.). Linear DNA was quantified by accounting for the relationship between fluorescence and relative band intensity for open circular (QC), linear (LNR), supercoiled (SC), and RLX (relaxed) configurations of DNA (Projan S J et al. Plasmid 1983, 9, 182-190), then calculating % of LNR from the total DNA content in each lane.

[4] = tested on: HT-29 human colon cancer cells
Protocol: as §1, §2

[5] = read-out: IC50 values toward the HT-29 cells, Table 6, triplicate, two independent experiments
[6] = Homo sapiens, HT-29, read-out: IC50 values toward the HT-29 cells

Chain of topo IIα (P11388 whole entry): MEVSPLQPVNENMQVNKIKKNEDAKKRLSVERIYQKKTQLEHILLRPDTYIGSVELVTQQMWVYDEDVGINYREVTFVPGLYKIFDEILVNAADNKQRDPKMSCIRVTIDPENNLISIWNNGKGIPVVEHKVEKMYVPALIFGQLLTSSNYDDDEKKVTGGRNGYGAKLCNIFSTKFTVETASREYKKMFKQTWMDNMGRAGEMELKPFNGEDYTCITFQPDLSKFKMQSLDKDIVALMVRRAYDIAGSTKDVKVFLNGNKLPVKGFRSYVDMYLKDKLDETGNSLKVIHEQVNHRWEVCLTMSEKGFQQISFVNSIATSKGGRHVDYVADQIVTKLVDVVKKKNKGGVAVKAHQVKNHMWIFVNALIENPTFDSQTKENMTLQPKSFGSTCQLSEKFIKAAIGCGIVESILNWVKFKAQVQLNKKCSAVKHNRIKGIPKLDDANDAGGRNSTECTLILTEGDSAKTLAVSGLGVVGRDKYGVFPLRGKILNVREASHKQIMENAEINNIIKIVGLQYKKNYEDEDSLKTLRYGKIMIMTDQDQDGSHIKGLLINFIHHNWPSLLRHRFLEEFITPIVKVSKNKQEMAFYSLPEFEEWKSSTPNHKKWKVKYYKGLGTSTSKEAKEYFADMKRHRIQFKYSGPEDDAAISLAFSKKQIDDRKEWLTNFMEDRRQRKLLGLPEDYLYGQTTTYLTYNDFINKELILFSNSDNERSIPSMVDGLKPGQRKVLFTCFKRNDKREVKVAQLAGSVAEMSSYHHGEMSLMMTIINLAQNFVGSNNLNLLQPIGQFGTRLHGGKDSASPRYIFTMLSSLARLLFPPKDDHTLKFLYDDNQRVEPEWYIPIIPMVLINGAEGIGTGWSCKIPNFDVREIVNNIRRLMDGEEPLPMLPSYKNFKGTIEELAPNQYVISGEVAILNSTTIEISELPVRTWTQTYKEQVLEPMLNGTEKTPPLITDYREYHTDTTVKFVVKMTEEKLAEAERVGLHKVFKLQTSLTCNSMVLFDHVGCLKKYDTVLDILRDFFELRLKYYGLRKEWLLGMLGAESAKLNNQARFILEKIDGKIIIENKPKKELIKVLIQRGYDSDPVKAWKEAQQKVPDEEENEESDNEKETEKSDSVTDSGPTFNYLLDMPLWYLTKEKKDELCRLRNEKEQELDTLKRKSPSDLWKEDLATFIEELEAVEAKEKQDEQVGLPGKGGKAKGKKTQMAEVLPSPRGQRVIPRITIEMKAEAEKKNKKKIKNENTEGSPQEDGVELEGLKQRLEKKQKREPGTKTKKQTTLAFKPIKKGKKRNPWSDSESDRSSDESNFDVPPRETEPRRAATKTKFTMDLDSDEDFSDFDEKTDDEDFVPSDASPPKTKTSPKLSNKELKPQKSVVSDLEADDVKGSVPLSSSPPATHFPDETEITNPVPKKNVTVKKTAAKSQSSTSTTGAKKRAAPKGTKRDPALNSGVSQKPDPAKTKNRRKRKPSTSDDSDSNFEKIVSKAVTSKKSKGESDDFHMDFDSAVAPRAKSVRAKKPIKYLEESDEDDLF

Compound: COc1cc2c(O[C@@H]3OC[C@H](OC(C)=O)[C@H](OC(C)=O)[C@H]3O)c3c(c(-c4ccc5c(c4)OCO5)c2cc1OC)C(=O)OC3 [Compound 1, 7-O-[(3,4-di-O-acetyl)-α-L-arabinopyranosyl] diphyllin]
- activity in in vivo hollow fiber assay (HT-29 cell growth) [1]: showed activity; also recorded: dose dependent tendency; also recorded: active; also recorded: antitumor efficacy in vivo
- activity in in vivo hollow fiber assay (HT-29 cell growth) ([1]; listed as Phyllanthusmin D): active
- toxicity in mice of the hollow fiber assay [1]: no signs of toxicity; also recorded: No gross toxicity; also recorded: without any gross toxicity
- toxicity in mice of the hollow fiber assay ([1]; listed as Phyllanthusmin D): no signs of gross toxicity
- EC50 ([2]; read-out: ED50, toxicity towards HT-29 cells, natural samples): 170 nM
- IC50 ([2]; read-out: IC50, cytotoxicity toward HT-29 cells): 170 nM
- cytotoxicity toward CCD-112CoN human normal colon cells (in words) [3]: non-cytotoxic
- IC50 ([3]; Table 6): > 100000 nM
- HT-29 cell apoptosis induction (in words) (HT-29 cells): inducing tumor cell apoptosis; also recorded: induction of tumor cell apoptosis; also recorded: can induce HT-29 cell apoptosis
- HT-29 cell apoptosis at the late-stage (HT-29 cells; 1 μM): 27.3%
- HT-29 cells undergoing early apoptosis (HT-29 cells; 1 μM): 28.2%
- HT-29 cell apoptosis at the late-stage (HT-29 cells; 5 μM): 38.0%
- HT-29 cells undergoing early apoptosis (HT-29 cells; 5 μM): 30.3%
- topo IIα inhibition (in words) (topo IIα): did not inhibit DNA topoisomerase IIα activity; also recorded: not topo Ha inhibitors; also recorded: no inhibitory activity against topo IIα; also recorded: not topo IIα inhibitors

Compound: COc1cc2c(O[C@@H]3OC[C@H](O)[C@H](OC(C)=O)[C@H]3O)c3c(c(-c4ccc5c(c4)OCO5)c2cc1OC)C(=O)OC3 [Compound 2, 7-O-[(3-O-acetyl)-α-L-arabinopyranosyl] diphyllin]
- IC50 [2, 5]: 1800 nM

Compound: COc1cc2c(O[C@@H]3OC[C@H](OC(C)=O)[C@H](O)[C@H]3O)c3c(c(-c4ccc5c(c4)OCO5)c2cc1OC)C(=O)OC3 [Compound 3, Phyllanthusmin B]
- cytotoxicity toward HT-29 cells (in words) [4]: cytotoxic
- IC50 [2, 5]: 1800 nM

Compound: COc1cc2c(O[C@@H]3O[C@H](CO)[C@@H](O)[C@H](O)[C@H]3O)c3c(c(-c4ccc5c(c4)OCO5)c2cc1OC)C(=O)OC3 [Compound 5, Cleistanthin B]
- IC50 [2, 5]: > 10000 nM

Compound: COc1cc2c(OC)c3c(c(-c4ccc5c(c4)OCO5)c2cc1O)C(=O)OC3 [Compound 6, Phyllanthusmin A]
- cytotoxicity toward HT-29 cells (in words) [4]: inactive
- IC50 [2, 5]: > 10000 nM

Compound: COc1cc2c(O)c3c(c(-c4ccc5c(c4)OCO5)c2cc1OC)C(=O)OC3 [Compound 8, Diphyllin]
- IC50 [2, 6]: 7600 nM

Compound: COc1cc([C@@H]2c3cc4c(cc3[C@@H](O[C@@H]3O[C@@H]5CO[C@@H](C)O[C@H]5[C@H](O)[C@H]3O)[C@H]3COC(=O)[C@H]23)OCO4)cc(OC)c1O [etoposide, reference compound]
- IC50 [2, 6]: > 10000 nM
- HT-29 cell apoptosis at the late-stage (HT-29 cells; 1 μM): 19.8%
- HT-29 cells undergoing early apoptosis (HT-29 cells; 1 μM): 12.9%
- HT-29 cell apoptosis at the late-stage (HT-29 cells; 5 μM): 25.3%
- HT-29 cells undergoing early apoptosis (HT-29 cells; 5 μM): 12.5%

Compound: CC(=O)O[C@H]1C(=O)[C@@]2(C)[C@H]([C@H](OC(=O)c3ccccc3)[C@]3(O)C[C@H](OC(=O)[C@H](O)[C@@H](NC(=O)c4ccccc4)c4ccccc4)C(C)=C1C3(C)C)[C@]1(OC(C)=O)CO[C@@H]1C[C@@H]2O [paclitaxel, reference compound]
- IC50 [2, 6]: 1 nM
- IC50 ([3]; Homo sapiens, CCD-112CoN): 23000 nM
